Measurements as given in patent US20250114374A1, “BCL-2 INHIBITORS” (Newave Pharmaceutical Inc., priority 2021, published 2025).

tested on: RS4; 11 with G101V mutation; test: In vitro anti-proliferation assay (ATPlite luminescence) in BCL-2-dependent ALL cell line RS4;11 with G101V mutation; type: cell-based; conditions: cellular anti-proliferative IC50, about 72 hours, medium with 10% FBS, ATPlite; read-out: RS411-G101V IC50
Protocol: Cell antiproliferation was assayed by PerkinElmer ATPlite™ Luminescence Assay System. Briefly, the various test cancer cell lines were plated at a density of about 1×10^4 cells per well in Costar 96-well plates, and were incubated with different concentrations of compounds for about 72 hours in medium supplemented with 10% FBS. One lyophilized substrate solution vial was then reconstituted by adding 5 mL of substrate buffer solution, and was agitated gently until the solution was homogeneous. About 50 μL of mammalian cell lysis solution was added to 100 μL of cell suspension per well of a microplate, and the plate was shaken for about five minutes in an orbital shaker at ˜700 rpm. This procedure was used to lyse the cells and to stabilize the ATP. Next, 50 μL substrate solution was added to the wells and microplate was shaken for five minutes in an orbital shaker at ˜700 rpm. Finally, the luminescence was measured by a PerkinElmer TopCount® Microplate Scintillation Counter. Such assays, carried out with a range of doses of test compounds, allowed the determination of the cellular anti-antiproliferative IC50 of the compounds of the present invention.
The following table lists the IC50 values of another study for certain compounds of the invention.

Compared with `COc1cc(CN2CCN(C3CC4(CCN(c5ccc(C(=O)NS(=O)(=O)c6ccc(NCC7CCC(C)(O)CC7)c([N+](=O)[O-])c6)c(N6c7cc8c(F)c[nH]c8nc7O[C@H]7COCC[C@@H]76)c5)CC4)C3)[C@@H](c3ccccc3OC(C)C)C2)cnc1N1CCOCC1` (stereo partly drawn) [Example 122, 2-[(3R,8S)-13-fluoro-2,5-dioxa-9,15,17-triazatetracyclo[8.7.0.0^{3,8}.0^{12,16}]heptadeca-1(10),11,13,16-tetraen-9-yl]-4-{2-[(2S)-2-(2-isopropoxyphenyl)-4-{[5-methoxy-6-(morpholin-4-yl)pyridin-3-yl]methyl}piperazin-1-yl]-7-azaspiro[3.5]nonan-7-yl}-N-[3-nitro-4-({[(1r,4r)-4-hydroxy-4-methylcyclohexyl]methyl}amino)benzenesulfonyl]benzamide], `COc1cc(CN2CCN(C3CC4(CCN(c5ccc(C(=O)NS(=O)(=O)c6ccc(NCC7CCC(C)(O)CC7)c([N+](=O)[O-])c6)c(N6c7cc8cc[nH]c8nc7O[C@H]7COCC[C@@H]76)c5)CC4)C3)[C@H](c3ccccc3C)C2)cnc1N1CCOCC1` (stereo partly drawn) [Example 123, N-((4-((((1r,4r)-4-hydroxy-4-methylcyclohexyl)methyl)amino)-3-nitrophenyl)sulfonyl)-4-(2-((R)-4-((5-methoxy-6-morpholinopyridin-3-yl)methyl)-2-(o-tolyl)piperazin-1-yl)-7-azaspiro[3.5]nonan-7-yl)-2-((5aS,9aR)-6,7,9,9a-tetrahydro-1H-pyrano[3,4-b]pyrrolo[3′,2′:5,6]pyrido[3,2-e][1,4]oxazin-5(5aH)-yl)benzamide] is 3.4-fold lower in IC50: 10 nM for the first, 2.9 nM for the second.

Going from `COc1cc(CN2CCN(C3CC4(CCN(c5ccc(C(=O)NS(=O)(=O)c6ccc(NCC7CCC(C)(O)CC7)c([N+](=O)[O-])c6)c(N6c7cc8cc[nH]c8nc7O[C@H]7COCC[C@@H]76)c5)CC4)C3)[C@H](c3ccccc3C)C2)cnc1N1CCOCC1` (stereo partly drawn) [Example 124, N-((4-((((1r,4r)-4-hydroxy-4-methylcyclohexyl)methyl)amino)-3-nitrophenyl)sulfonyl)-4-(2-((R)-4-((5-(methoxy-d3)-6-morpholinopyridin-3-yl)methyl)-2-(o-tolyl)piperazin-1-yl)-7-azaspiro[3.5]nonan-7-yl)-2-((5aS,9aR)-6,7,9,9a-tetrahydro-1H-pyrano[3,4-b]pyrrolo[3′,2′:5,6]pyrido[3,2-e][1,4]oxazin-5(5aH)-yl)benzamide] to `COc1cc(CN2CCN(C3CC4(CCN(c5ccc(C(=O)NS(=O)(=O)c6ccc(NCC7CCOCC7)c([N+](=O)[O-])c6)c(N6c7cc8cc[nH]c8nc7O[C@H]7COCC[C@@H]76)c5)CC4)C3)[C@@H](c3ccccc3OC(C)C)C2)cnc1N1CCOCC1` [Example 131, 2-[(3R,8S)-2,5-dioxa-9,15,17-triazatetracyclo[8.7.0.0^{3,8}.0^{12,16}]heptadeca-1(10),11,13,16-tetraen-9-yl]-4-{2-[(2S)-2-(2-isopropoxyphenyl)-4-{[5-methoxy-6-(morpholin-4-yl)pyridin-3-yl]methyl}piperazin-1-yl]-7-azaspiro[3.5]nonan-7-yl}-N-{3-nitro-4-[(oxan-4-ylmethyl)amino]benzenesulfonyl}benzamide], the IC50 rises from 2 nM to 34.6 nM (17-fold).

`Cc1ccccc1[C@@H]1CN(Cc2cnc3c(c2)OCCO3)CCN1C1CC2(CCN(c3ccc(C(=O)NS(=O)(=O)c4ccc(NCC5CCC(C)(O)CC5)c([N+](=O)[O-])c4)c(N4c5cc6cc[nH]c6nc5O[C@H]5COCC[C@@H]54)c3)CC2)C1` (stereo partly drawn) [Example 125, 2-[(3R,8S)-2,5-dioxa-9,15,17-triazatetracyclo[8.7.0.0^{3,8}.0^{12,16}]heptadeca-1(10),11,13,16-tetraen-9-yl]-4-{2-[(2R)-4-{2H,3H-[1,4]dioxino[2,3-b]pyridin-7-ylmethyl}-2-(2-methylphenyl)piperazin-1-yl]-7-azaspiro[3.5]nonan-7-yl}-N-[3-nitro-4-({[(1r,4r)-4-hydroxy-4-methylcyclohexyl]methyl}amino)benzenesulfonyl]benzamide] and `COc1cc(CN2CCN(C3CC4(CCN(c5ccc(C(=O)NS(=O)(=O)c6ccc(NCC7CCC(C)(O)CC7)c([N+](=O)[O-])c6)c(N6c7cc8cc[nH]c8nc7O[C@H]7COCC[C@@H]76)c5)CC4)C3)[C@@H](c3ccccc3OC(C)C)C2)cnc1N1CCOC[C@@H]1C` (stereo partly drawn) [Example 126, N-((4-((((1r,4r)-4-hydroxy-4-methylcyclohexyl)methyl)amino)-3-nitrophenyl)sulfonyl)-4-(2-((S)-2-(2-isopropoxyphenyl)-4-((5-methoxy-6-((S)-3-methylmorpholino)pyridin-3-yl)methyl)piperazin-1-yl)-7-azaspiro[3.5]nonan-7-yl)-2-((5aS,9aR)-6,7,9,9a-tetrahydro-1H-pyrano[3,4-b]pyrrolo[3′,2′:5,6]pyrido[3,2-e][1,4]oxazin-5(5aH)-yl)benzamide] are within 1.5-fold of each other in IC50: 13.9 nM for the first, 11.7 nM for the second.

Going from `CC(C)Oc1ccccc1[C@H]1CN(Cc2ccnc3c2OCC(C)(C)O3)CCN1C1CC2(CCN(c3ccc(C(=O)NS(=O)(=O)c4ccc(NCC5CCC(C)(O)CC5)c([N+](=O)[O-])c4)c(N4c5cc6cc[nH]c6nc5O[C@H]5COCC[C@@H]54)c3)CC2)C1` (stereo partly drawn) [Example 127, 4-(2-((S)-4-((3,3-dimethyl-2,3-dihydro-[1,4]dioxino[2,3-b]pyridin-8-yl)methyl)-2-(2-isopropoxyphenyl)piperazin-1-yl)-7-azaspiro[3.5]nonan-7-yl)-N-((4-((((1r,4r)-4-hydroxy-4-methylcyclohexyl)methyl)amino)-3-nitrophenyl)sulfonyl)-2-((5aS,9aR)-6,7,9,9a-tetrahydro-1H-pyrano[3,4-b]pyrrolo[3′,2′:5,6]pyrido[3,2-e][1,4]oxazin-5(5aH)-yl)benzamide] to `COc1cc(CN2CCN(C3CC4(CCN(c5ccc(C(=O)NS(=O)(=O)c6ccc(NCC7CCC(C)(O)CC7)c([N+](=O)[O-])c6)c(N6c7cc8cc[nH]c8nc7O[C@H]7COCC[C@@H]76)c5)CC4)C3)[C@@H](c3ccccc3OC(C)C)C2)cc2cc(C)oc12` (stereo partly drawn) [Example 129, N-((4-((((1r,4r)-4-hydroxy-4-methylcyclohexyl)methyl)amino)-3-nitrophenyl)sulfonyl)-4-(2-((S)-2-(2-isopropoxyphenyl)-4-((7-methoxy-2-methylbenzofuran-5-yl)methyl)piperazin-1-yl)-7-azaspiro[3.5]nonan-7-yl)-2-((5aS,9aR)-6,7,9,9a-tetrahydro-1H-pyrano[3,4-b]pyrrolo[3′,2′:5,6]pyrido[3,2-e][1,4]oxazin-5(5aH)-yl)benzamide], the IC50 rises from 8.1 nM to 33.9 nM (4.2-fold).

`CC(C)Oc1ccccc1[C@H]1CN(Cc2ccc(N3CCOCC3)cn2)CCN1C1CC2(CCN(c3ccc(C(=O)NS(=O)(=O)c4ccc(NCC5CCC(C)(O)CC5)c([N+](=O)[O-])c4)c(N4c5cc6cc[nH]c6nc5O[C@H]5COCC[C@@H]54)c3)CC2)C1` (stereo partly drawn) [Example 128, N-((4-((((1r,4r)-4-hydroxy-4-methylcyclohexyl)methyl)amino)-3-nitrophenyl)sulfonyl)-4-(2-((S)-2-(2-isopropoxyphenyl)-4-((5-morpholinopyridin-2-yl)methyl)piperazin-1-yl)-7-azaspiro[3.5]nonan-7-yl)-2-((5aS,9aR)-6,7,9,9a-tetrahydro-1H-pyrano[3,4-b]pyrrolo[3′,2′:5,6]pyrido[3,2-e][1,4]oxazin-5(5aH)-yl)benzamide] and `COc1cc(CN2CCN(C3CC4(CCN(c5ccc(C(=O)NS(=O)(=O)c6ccc(NCC7CCOCC7)c([N+](=O)[O-])c6)c(N6c7cc8cc[nH]c8nc7O[C@H]7COCC[C@@H]76)c5)CC4)C3)[C@@H](c3ccccc3OC(C)C)C2)cnc1N1CCOCC1` [Example 132, 2-[(3R,8S)-2,5-dioxa-9,15,17-triazatetracyclo[8.7.0.0^{3,8}.0^{12,16}]heptadeca-1(10),11,13,16-tetraen-9-yl]-4-{2-[(2S)-2-(2-isopropoxyphenyl)-4-{[5-methoxy-6-(morpholin-4-yl)pyridin-3-yl]methyl}piperazin-1-yl]-7-azaspiro[3.5]nonan-7-yl}-N-{3-nitro-4-[(oxan-4-ylmethyl)amino]benzenesulfonyl}benzamide] are within 1.5-fold of each other in IC50: 22.2 nM for the first, 32.2 nM for the second.

First: COc1cc(CN2CCN(C3CC4(CCN(c5ccc(C(=O)NS(=O)(=O)c6cc7c(c([N+](=O)[O-])c6)N[C@@H](C6CCC(C)(O)CC6)CO7)c(N6c7cc8cc[nH]c8nc7O[C@H]7COCC[C@@H]76)c5)CC4)C3)[C@@H](c3ccccc3OC(C)C)C2)cnc1N1CCOCC1 (stereo partly drawn) [Example 130, 2-[(3R,8S)-2,5-dioxa-9,15,17-triazatetracyclo[8.7.0.0^{3,8}.0^{12,16}]heptadeca-1(10),11,13,16-tetraen-9-yl]-4-{2-[(2S)-2-(2-isopropoxyphenyl)-4-{[5-methoxy-6-(morpholin-4-yl)pyridin-3-yl]methyl}piperazin-1-yl]-7-azaspiro[3.5]nonan-7-yl}-N-[(3S)-5-nitro-3-[(1r,4S)-4-hydroxy-4-methylcyclohexyl]-3,4-dihydro-2H-1,4-benzoxazin-7-ylsulfonyl]benzamide]
Second: COc1cc(CN2CCN(C3CC4(CCN(c5ccc(C(=O)NS(=O)(=O)c6ccc(NCC7CCOCC7)c([N+](=O)[O-])c6)c(N6c7cc8cc[nH]c8nc7O[C@H]7COCC[C@@H]76)c5)CC4)C3)[C@@H](c3ccccc3OC(C)C)C2)cnc1N1CCOCC1 [Example 133, 2-[(3R,8S)-2,5-dioxa-9,15,17-triazatetracyclo[8.7.0.0^{3,8}.0^{12,16}]heptadeca-1(10),11,13,16-tetraen-9-yl]-4-{2-[(2S)-2-(2-isopropoxyphenyl)-4-{[5-methoxy-6-(morpholin-4-yl)pyridin-3-yl]methyl}piperazin-1-yl]-7-azaspiro[3.5]nonan-7-yl}-N-{3-nitro-4-[(oxan-4-ylmethyl)amino]benzenesulfonyl}benzamide]
The IC50 of the first is 2.5-fold lower: 13.1 nM for the first, 32.4 nM for the second.
